Results reported in patent publication US12612408B2, “Pyrazolone-fused pyrimidine compound, preparation method for same and applications thereof” (SHANGHAI PHARMACEUTICALS HOLDING CO., LTD., priority 2019, dated 2026).

How the values were obtained:
[1] = Bioavailability test in vivo in mice (pharmacokinetics, iv and intragastric); set-up: species or system ICR mice
Description: 404.6 μL of DMSO was added to the compound powder of the present disclosure until the compound was completely dissolved, and 50 mg/mL mother liquor was prepared in a clarified state.
The compound of the present disclosure: 24 μL of mother liquor was accurately measured, diluted to 4 mL according to the ratio of 0.9% normal saline:PEG400=8:2, the preparation concentration was 0.3 mg/mL, the solution was in a clarified state, and it was used as intravenous administration solution. In addition, 80 μL mother liquor was accurately measured, and 0.5% CMC-Na was added to 8 mL to grind it into a uniform suspension with a concentration of 0.5 mg/mL, which was used as intragastric administration solution.
Intravenous group: 24 ICR mice, 20±2 g, were given the intravenous administration solution of the compound of the present disclosure by intravenous injection, with the volume of 10 mL/kg, with the dose of 3 mg/kg, the blood was taken from the fundus venous plexus of mice, 2, 5, 15, 30, 60, 90, 120, 240, 360, 480, 600 and 1440 minutes before and after administration.
Intragastric group: 24 ICR mice, 20±2 g, were given the intragastric administration solution of the compound of the present disclosure by intragastric injection, with the volume of 20 mL/kg, with the dose of 10 mg/kg, the blood was taken from the fundus venous plexus of mice, 5, 15, 30, 60, 90, 120, 240, 360, 480, 600 and 1440 minutes before and after administration.
Blood sample was centrifuged at 8000 rpm for 5 min, and the plasma was stored in a centrifuge tube at −20° C. for later use.
300 μL of acetonitrile containing internal standard (Propranolol, 25 ng/mL) was added to 50 μL of plasma samples to precipitate protein, vortexed for 10 min, 6000 g, 4° C., centrifuged for 10 min; the supernatant before intravenous injection for 1 hour was taken, diluted 10 times with acetonitrile containing internal standard, the rest supernatant was kept undiluted, centrifuged for 10 min again at 6000 g, 4° C., and the supernatant was taken and then injected into a 96-well plate.
(§1) Dose; peak concentration: Cmax; peak time: Tmax; area under the drug-time curve from AUClast 0 to time t; half-life: T1/2; mean retention time: MRT; clearance: Cl; apparent distribution volume: Vz; steady-state distributed volume: Vss; absolute bioavailability: F.
The pharmacokinetic parameters of the compound in mice after intravenous injection or intragastric administration were shown in Table 4 and Table 5 below.

[2] = Bioavailability test in vivo in cynomolgus monkey (pharmacokinetics, IV and PO); conditions: cynomolgus monkeys
Description: Twelve male Non-Naïve cynomolgus monkeys were purchased from GuangxiGuidong Primate Development Experiment Co. LTD.
54.31 mg of I-8-1 was accurately weighed, and 1.08 mL of DMSO was added, then the mixture was vortexed for 1 min, sonicated for 15 min, and then diluted to 36 mL according to the ratio of 10% HP-β-cyclodextrin (prepared by normal saline): PEG=8:2, vortexed for 1 min. A colorless clarified administration solution (the pH value was about 7) at a concentration of 1.5 mg/mL was prepared for intravenous administration to Group 1.
300.9 mg of I-8-1 was accurately weighed, and 75 mL of 0.5% CMC-Na was added, the mixture was fully ground and stirred for 5 min. A white suspension (the pH value was about 7) at a concentration of 4 mg/mL was prepared for oral administration to Group 2.
54.05 mg of AZD1775 was accurately weighed, and 1.08 mL of DMSO was added, then he mixture was vortexed for 1 min, sonicated for 15 min, and then diluted to 36 mL according to the ratio of 10%-D-cyclodextrin (prepared by normal saline): PEG=8:2, vortexed for 1 min. A yellow clarified administration solution (the pH value was about 7) at a concentration of 1.5 mg/mL was prepared for intravenous administration to Group 3.
300.7 mg of AZD1775 was accurately weighed, and 75 mL of 0.5% CMC-Na was added, the mixture was fully ground and stirred for 5 min. A yellow suspension (the pH value was about 7) at a concentration of 4 mg/mL was prepared for oral administration to Group 4.
Before administration, all animals were fasted overnight (approximately 12 hours) and fed as required and administered according to the table below.
Intravenous group: before administration (0 h), 0.033 h, 0.083 h, 0.25 h, 0.5 h, 1 h, 1.5 h, 2 h, 4 h, 6 h, 8 h, 12 h, 24 h after administration.
Oral group: before administration (0 h), 0.083 h, 0.25 h, 0.5 h, […], 2 h, 4 h, 6 h, 8 h, 12 h, 24 h after administration.
Blood samples were collected by puncture through lower limb vein or other suitable blood vessels at 1 mL/time point (3 mL of blood samples were collected from each animal before administration), anticoagulated with heparin sodium, and placed on ice after collection. Plasma was separated at 2200 g/min, 10 min, 2-8° C., plasma samples were stored in a −80° C. refrigerator before being transferred to the client. Plasma samples are stored in dry ice and transferred to the client. The final treatment of the sample will be recorded in the experimental record.
300 μL of acetonitrile was added to 50 μL of plasma samples containing internal standard (Propranolol, 25 ng/mL) to precipitate protein, vortexed for 10 min, centrifuged at 6000 g for 10 min, after I-8-1&AZD1775 intravenous injection group was diluted 10 times with internal standard acetonitrile (Propranolol, 25 ng/mL) at the time point before 1 hour, the remaining supernatant was not diluted, centrifuged again at 6000 g at 4° C. for 10 min, and the supernatant was taken and injected into a 96 well plate.
as §1
The pharmacokinetic parameters of the compound in cynomolgus monkeys after intravenous injection or intragastric administration were shown in Table 6 below.

[3] = ICR, mouse, plasma, iv, 3 mg/kg
[4] = ICR, mouse, plasma, po (intragastric), 10 mg/kg
[5] = male, cynomolgus monkey, plasma, iv, 3 mg/kg
[6] = male, cynomolgus monkey, plasma, po, 20 mg/kg, fasted

Work on `C=CCn1c(=O)c2cnc(Nc3ccc(C4CCC(N5CCC5)CC4)cc3)nc2n1-c1cccc(C(C)(C)O)n1` (single isomer, unassigned) [Compound I-8-1] yielded a Cmax [1, 3] of 644 ± 132 ng/mL, an MRT [1, 3] of 1.11 ± 0.08 h and a Tmax [1, 3] of 0.03 h. It also gave a clearance [1, 3] of 155 mL/min/kg, a half-life [1, 3] of 1.22 ± 0.1 h and a Vd ([1]; ICR, mouse, plasma, iv, 3 mg/kg, iv, 3 mg/kg, read-out: Vss) of 10.3 ± 0.86 L/kg. For the same compound, the Vd ([1]; ICR, mouse, plasma, iv, 3 mg/kg, iv, 3 mg/kg, read-out: Vz) was 16.3 ± 2.48 L/kg, the bioavailability ([1]; ICR, mouse, plasma, po 10 mg/kg vs iv 3 mg/kg, read-out: F (absolute bioavailability)) was 60.3% and the Cmax [1, 4] was 58.1 ± 7.09 ng/mL. It also gave an MRT [1, 4] of 3.47 ± 1.22 h, a Tmax [1, 4] of 1.67 ± 0.29 h and a half-life [1, 4] of 1.57 ± 0.39 h. For the same compound, the AUClast ([1]; iv, 3 mg/kg) was 317.5 ± 34.41 (h) (ng/mL), the AUClast ([1]; po (intragastric), 10 mg/kg) was 637.9 ± 302.3 (h) (ng/mL) and the AUCextra ([2]; iv, 3 mg/kg) was 16.11 ± 9.34 (h)*(ng/mL). The AUClast ([2]; iv, 3 mg/kg) was 957.6 ± 126.3 (h)*(ng/mL), the AUCtot ([2]; iv, 3 mg/kg) was 973.8 ± 131.4 (h)*(ng/mL) and the thalf ([2]; iv, 3 mg/kg) was 2.05 ± 1.24 h. For the same compound, the AUCextra ([2]; po, 20 mg/kg, fasted) was 187.03 ± 166.00 (h)*(ng/mL), the AUClast ([2]; po, 20 mg/kg, fasted) was 6548 ± 3043 (h)*(ng/mL) and the AUCtot ([2]; po, 20 mg/kg, fasted) was 6735 ± 3201 (h)*(ng/mL). It also gave a thalf ([2]; po, 20 mg/kg, fasted) of 3.71 ± 0.72 h, a Vd ([2]; male, cynomolgus monkey, plasma, iv, 3 mg/kg, iv, 3 mg/kg, read-out: Vss) of 9.67 ± 1.32 L/kg and a Vd ([2]; male, cynomolgus monkey, plasma, iv, 3 mg/kg, iv, 3 mg/kg, read-out: Vz) of 8.78 ± 4.22 L/kg. The Cmax [2, 5] was 838 ± 190 ng/mL, the MRT [2, 5] was 3.17 ± 0.82 h and the Tmax [2, 5] was 0.03 h. For the same compound, the clearance [2, 5] was 52 mL/min/kg, the bioavailability ([2]; male, cynomolgus monkey, plasma, po 20 mg/kg vs iv 3 mg/kg, read-out: BA (absolute bioavailability)) was 103% and the Cmax [2, 6] was 721 ± 260 ng/mL. The MRT [2, 6] was 7.91 ± 2 h and the Tmax [2, 6] was 4.5 ± 2.6 h.
